Data published in the supplement of paper PMC8671470.

Key:
Conditions in all cases: 72 h
[1] = system: myeloid leukemia patient primary cells Pat.10; experiment: cell viability (% survival relative to DMSO control); higher = less cytotoxic
In short: (§1)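 Where an area under the curve appears, it was computed with the drc and PharmacoGx R packages from log-logistic fits. Those fits used four parameters. The underlying viability data came from CellTiter-Glo after 72 h, normalised to DMSO and 10 μM proteasome-inhibitor wells, with thawed, Ficoll-purified AML or CML patient mononuclear cells at 10,000 cells/well in RPMI 1640 with 10% FBS on 384-well plates pre-printed with 70 compounds at five tenfold concentrations (1–10,000 nM) in duplicate.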

[2] = system: myeloid leukemia patient primary cells Pat.14; experiment: as above
In short: as §1

[3] = system: myeloid leukemia patient primary cells Pat.1; experiment: as above
In short: as §1

[4] = system: myeloid leukemia patient primary cells Pat.15; experiment: as above
In short: as §1

[5] = system: myeloid leukemia patient primary cells Pat.13; experiment: as above
In short: as §1

[6] = system: myeloid leukemia patient primary cells Pat.2; experiment: as above
In short: as §1

[7] = system: myeloid leukemia patient primary cells Pat.4; experiment: as above
In short: as §1

[8] = system: myeloid leukemia patient primary cells Pat.3; experiment: as above
In short: as §1

[9] = system: myeloid leukemia patient primary cells Pat.8; experiment: as above
In short: as §1

[10] = system: myeloid leukemia patient primary cells Pat.9; experiment: as above
In short: as §1

[11] = system: myeloid leukemia patient primary cells Pat.12; experiment: as above
In short: as §1

[12] = system: myeloid leukemia patient primary cells Pat.11; experiment: as above
In short: as §1

[13] = system: myeloid leukemia patient primary cells Pat.5; experiment: as above
In short: as §1

[14] = system: myeloid leukemia patient primary cells Pat.7; experiment: as above
In short: as §1

[15] = system: myeloid leukemia patient primary cells Pat.6; experiment: as above
In short: as §1

[16] = system: HL-60; experiment: area under dose-response curve (viability, 1 nM-10 uM) (fraction (0-1)); higher = more sensitive
In short: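 A rescreen of the full library used HL-60 cells in RPMI 1640 with 10% FBS on 384-well plates, run in duplicate at five tenfold concentrations (1–10,000 nM). Each screen included DMSO or 100 nM of one of three metabolic inhibitors and ran 72 h at 37 °C, 5% CO2. CellTiter-Glo viability was scaled between DMSO and 10 μM proteasome-inhibitor wells. Any area under the curve comes from four-parameter log-logistic fits with drc and PharmacoGx.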

[17] = system: KG-1
In short: (§2)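 Fifteen myeloid leukaemia cell lines were seeded in RPMI 1640 at a density titrated to the linear growth range. Each line went into 384-well plates with compounds acoustically pre-printed at five tenfold doses from 1 to 10,000 nM, in duplicate, and was incubated for 72 h at 37 °C with 5% CO2. Luminescent ATP viability was normalised to vehicle and to a positive control at 10 µM. The IC50 came from four-parameter log-logistic dose–response fits.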

[18] = system: HEL
In short: as §2

[19] = system: KCL-22
In short: as §2

[20] = system: LAMA-84
In short: as §2

[21] = system: HL-60
In short: as §2

[22] = system: THP-1
In short: as §2

[23] = system: BV-173
In short: as §2

[24] = system: SHI-1
In short: as §2

[25] = system: MOLM-13
In short: as §2

[26] = system: ML-2
In short: as §2

c1cc(-c2cnn3cc(-c4ccc(OCCN5CCCCC5)cc4)cnc23)ccn1 [Dorsomorphin]
Conditions	area under dose-response curve, co-treatment: AZD3965 100 nM	area under dose-response curve, co-treatment: DMSO vehicle	area under dose-response curve, co-treatment: GSK2194069 100 nM	area under dose-response curve, co-treatment: pictilisib 100 nM	cell viability, 1 nM [%]	cell viability, 10 nM [%]	cell viability, 100 nM [%]	cell viability, 1000 nM [%]	cell viability, 10000 nM [%]
[1]	–	–	–	–	17.6	76.4	61.4	27.6	38.4
[2]	–	–	–	–	48.1	100	53	84.5	60.8
[3]	–	–	–	–	76.7	93.2	78.1	65.8	27.8
[4]	–	–	–	–	88.3	90.6	95.6	92.5	24.9
[5]	–	–	–	–	88.2	94.5	64.7	50.7	48.6
[6]	–	–	–	–	95.8	99.8	92.5	> 100	59.4
[7]	–	–	–	–	86.7	91.5	90.1	56.8	35.9
[8]	–	–	–	–	64.7	99.1	67.9	86.3	34.1
[9]	–	–	–	–	77.5	99	92.6	81.6	68.6
[10]	–	–	–	–	41.6	> 100	11.5	41.3	18.7
[11]	–	–	–	–	98.5	97.1	98.5	92	91.6
[12]	–	–	–	–	95.2	> 100	90.4	79.8	43.8
[13]	–	–	–	–	3.45	81.3	5.46	1.33	10.2
[14]	–	–	–	–	25.4	95.4	65	89.5	30.9
[15]	–	–	–	–	84.6	> 100	73.2	83.4	72.5
[16]	0.0329	0.0501	< 0.0301	0.112	–	–	–	–	–

Conditions	IC50 (cell viability) [µM]
[17]	> 10
[18]	> 10
[19]	6.79
[20]	6.49
[21]	> 10
[22]	> 10
[23]	7.28
[24]	> 10
[25]	> 10
[26]	5.24

O=C(/C=C/c1ccc(O)c(O)c1)OCCc1ccccc1 [Caffeic acid phenethyl ester]
Conditions	area under dose-response curve, co-treatment: AZD3965 100 nM	area under dose-response curve, co-treatment: DMSO vehicle	area under dose-response curve, co-treatment: GSK2194069 100 nM	area under dose-response curve, co-treatment: pictilisib 100 nM	cell viability, 1 nM [%]	cell viability, 10 nM [%]	cell viability, 100 nM [%]	cell viability, 1000 nM [%]	cell viability, 10000 nM [%]
[1]	–	–	–	–	88.2	63.9	33	31	83.7
[2]	–	–	–	–	95.7	83.5	80.5	48.9	16.3
[3]	–	–	–	–	98.5	93	98.4	63.3	44
[4]	–	–	–	–	96.5	85.8	96.1	64.9	40.5
[5]	–	–	–	–	> 100	91	95.8	87.2	42
[6]	–	–	–	–	95.4	98.6	> 100	89.3	64
[7]	–	–	–	–	89.5	87.7	86.2	16.7	2.41
[8]	–	–	–	–	92	83.1	39.1	41.7	3.62
[9]	–	–	–	–	97.7	80.9	85.1	29	5.61
[10]	–	–	–	–	68.9	84.8	8.63	11.1	11.8
[11]	–	–	–	–	> 100	95.5	> 100	57.4	34.5
[12]	–	–	–	–	96.1	97.8	> 100	73.5	38
[13]	–	–	–	–	65.2	69.6	55.9	4.78	21.6
[14]	–	–	–	–	74.4	79.4	78.2	16.3	< 0
[15]	–	–	–	–	98	93.6	96.9	65.7	35.2
[16]	0.0691	0.0547	0.0593	0.138	–	–	–	–	–

Conditions	IC50 (cell viability) [µM]
[17]	1.1
[18]	4.18
[19]	2.21
[20]	6.17
[21]	1.07
[22]	6.98
[23]	0.664
[24]	> 10
[25]	> 10
[26]	1.26

O=c1cc(N2CCOCC2)oc2c(-c3ccccc3)cccc12
Conditions	area under dose-response curve, co-treatment: AZD3965 100 nM	area under dose-response curve, co-treatment: GSK2194069 100 nM	area under dose-response curve, co-treatment: pictilisib 100 nM	cell viability, 1 nM [%]	cell viability, 10 nM [%]	cell viability, 100 nM [%]	cell viability, 1000 nM [%]	cell viability, 10000 nM [%]
[1]	–	–	–	31.3	46.9	78.1	50.8	22.6
[2]	–	–	–	86.4	56.8	91.1	77.9	58.3
[3]	–	–	–	77.8	83.5	78	63.6	27.5
[4]	–	–	–	77.5	> 100	97	81.7	10.2
[5]	–	–	–	88.7	95.7	83.6	91.4	45.6
[6]	–	–	–	92.1	87.9	99.7	91.1	67.2
[7]	–	–	–	78.8	98.5	86.1	63.1	14.4
[8]	–	–	–	96.2	37.6	92.2	80	61.6
[9]	–	–	–	88.3	86	92.4	67.1	61.5
[10]	–	–	–	63.7	15.2	77.7	54.8	12.5
[11]	–	–	–	91.4	98.3	92.6	97.4	92.4
[12]	–	–	–	88.7	94.2	96.7	91.1	65.2
[13]	–	–	–	47.8	0.265	70.4	58.3	< 0
[14]	–	–	–	84.4	64.8	94.8	92.1	80.5
[15]	–	–	–	91.8	82.3	93.2	97	68.3
[16]	< 0.0301	< 0.0301	0.058	–	–	–	–	–

Conditions	IC50 (cell viability) [µM]
[17]	4.97
[18]	0.0487
[19]	9.05
[20]	> 10
[21]	0.334
[22]	> 10
[23]	0.0237
[24]	3.6
[25]	0.185
[26]	0.0328

CCN(CC)C(=S)SSC(=S)N(CC)CC [Disulfiram]
Conditions	area under dose-response curve, co-treatment: AZD3965 100 nM	area under dose-response curve, co-treatment: DMSO vehicle	area under dose-response curve, co-treatment: GSK2194069 100 nM	area under dose-response curve, co-treatment: pictilisib 100 nM	cell viability, 1 nM [%]	cell viability, 10 nM [%]	cell viability, 100 nM [%]	cell viability, 1000 nM [%]	cell viability, 10000 nM [%]
[1]	–	–	–	–	85	72.2	47.8	56.6	> 100
[2]	–	–	–	–	89.1	93.9	87.8	60.5	21.4
[3]	–	–	–	–	95	82.2	79.8	1.11	0.116
[4]	–	–	–	–	96.8	87.7	9.1	1.3	0.0644
[5]	–	–	–	–	94.8	91	79.5	< 0	4.12
[6]	–	–	–	–	95.6	93.9	39.1	0.978	3.7
[7]	–	–	–	–	94.9	90.7	96.1	0.934	6.79
[8]	–	–	–	–	> 100	99.2	99.7	84.6	1.56
[9]	–	–	–	–	61.6	76.7	39.6	0.473	1.14
[10]	–	–	–	–	71.8	> 100	86.3	33.6	20.9
[11]	–	–	–	–	98	95.2	54	3.19	< 0
[12]	–	–	–	–	99.9	99.2	98.7	2.1	3.25
[13]	–	–	–	–	76.6	76.8	74.5	26.1	5.84
[14]	–	–	–	–	83.4	86.8	61.1	71.7	< 0
[15]	–	–	–	–	99.6	94.6	80.5	2.26	4.13
[16]	< 0.0301	< 0.0301	< 0.0301	< 0.0301	–	–	–	–	–

Conditions	IC50 (cell viability) [µM]
[17]	0.272
[18]	> 10
[19]	> 10
[20]	> 10
[21]	> 10
[22]	0.0708
[23]	0.778
[24]	0.0728
[25]	> 10
[26]	0.264

Cc1cc2c(C(C)C)c(O)c(O)c(C=O)c2c(O)c1-c1c(C)cc2c(C(C)C)c(O)c(O)c(C=O)c2c1O [Gossypol]
Conditions	area under dose-response curve, co-treatment: AZD3965 100 nM	area under dose-response curve, co-treatment: DMSO vehicle	area under dose-response curve, co-treatment: GSK2194069 100 nM	area under dose-response curve, co-treatment: pictilisib 100 nM	cell viability, 1 nM [%]	cell viability, 10 nM [%]	cell viability, 100 nM [%]	cell viability, 1000 nM [%]	cell viability, 10000 nM [%]
[1]	–	–	–	–	89.2	41.6	43.3	2.16	89.9
[2]	–	–	–	–	> 100	42.9	69.1	0.583	63.3
[3]	–	–	–	–	82.1	92.5	92.2	78.8	14.3
[4]	–	–	–	–	98.2	85.9	89.7	95.7	27.3
[5]	–	–	–	–	87.8	69.7	83.6	75.4	15
[6]	–	–	–	–	96.6	92.2	93	80	34.6
[7]	–	–	–	–	84.4	90.7	77.1	81.5	8.19
[8]	–	–	–	–	96.5	28	70.6	< 0	3.08
[9]	–	–	–	–	82.2	89.7	89.9	84.7	6.5
[10]	–	–	–	–	63.1	7.88	22	6.35	28.7
[11]	–	–	–	–	98.6	94	88.1	99.1	50.5
[12]	–	–	–	–	98.5	98.9	91.9	84.6	11.6
[13]	–	–	–	–	98.7	6.75	22.8	5.84	93.9
[14]	–	–	–	–	72.1	28.8	60.8	< 0	< 0
[15]	–	–	–	–	99.8	80.8	84.4	83.7	20.9
[16]	0.123	0.124	0.154	0.145	–	–	–	–	–

Conditions	IC50 (cell viability) [µM]
[17]	3.57
[18]	3.55
[19]	2.86
[20]	3.34
[21]	3.87
[22]	2.54
[23]	1.6
[24]	6.25
[25]	2.98
[26]	2.1
